In patent US10442803B2, “Tricyclic heterocycles as bet protein inhibitors” (Incyte Corporation, priority 2013, dated 2019):
Counter-ions that a name gives are not always drawn.

Each compound was assayed on KMS.12.BM cells (assay: KMS.12.BM cell viability assay). Settings: 72 h; KMS.12.BM human myeloma cells, 3 days, Cell Titer-GLO ATP quantitation; read-out: KMS cellular IC50.
Assay type: cell-based
Procedure: KMS.12.BM cell line (human myeloma) was purchased from JCRB (Osaka, Japan) and maintained in RPMI with 10% FBS culture medium. To measure the cytotoxic activity of the compounds through ATP quantitation, the KMS.12.BM cells are plated in the RPMI culture medium at 5000 cells/well/per 100 μL into a 96-well polystyrene clear black tissue culture plate (Greiner-bio-one through VWR, NJ), in the presence or absence of a concentration range of test compounds. After 3 days, […] Cell Titer-GLO Luminescent (Promega, Madison, Wis.) cell culture agent is added to each well for 10 minutes at room temperature to stabilize the luminescent signal. This determines the number of viable cells in culture based on quantitation of the ATP present, which signals the presence of metabolically active cells. Luminescence is measured with the Top Count 384 (Packard Bioscience through Perkin Elmer, Boston, Mass.).
IC50 data for the Examples is presented in Table 4 as determined by Assay B1.

**Q.** `Cc1cc2c(ccc3nnc(C)n32)n1Cc1cccc(CO)c1` [Example 26, {3-[(1,7-dimethyl-6H-pyrrolo[2,3-e][1,2,4]triazolo[4,3-a]pyridin-6-yl)methyl]phenyl}methanol trifluoroacetate salt] was tested. Which IC50 did it give?
**A.** ≤ 1000 nM

**Q.** Which IC50 does the source give for `Cc1cc2c(ccc3nnc(C)n32)n1Cc1cccc(CN2CC(O)C2)c1` [Example 27, 1-(3-((1,7-dimethyl-6H-pyrrolo[2,3-e][1,2,4]triazolo[4,3-a]pyridin-6-yl)methyl)benzyl)azetidin-3-ol bis-trifluoroacetate salt] here?
**A.** ≤ 1000 nM

**Q.** For `Cc1cc2c(ccc3nnc(C)n32)n1Cc1cccc(CN2CCC2)c1` [Example 28, 6-[3-(azetidin-1-ylmethyl)benzyl]-1,7-dimethyl-6H-pyrrolo[2,3-e][1,2,4]triazolo[4,3-a]pyridine], which IC50 is on record?
**A.** ≤ 1000 nM

**Q.** Which IC50 does the source give for `Cc1cc2c(ccc3nnc(C)n32)n1Cc1cccc(C(N)=O)c1` [Example 30, 3-((1,7-dimethyl-6H-pyrrolo[2,3-e][1,2,4]triazolo[4,3-a]pyridin-6-yl)methyl)benzamide trifluoroacetate salt] here?
**A.** 1000 to 10000 nM

**Q.** `Cc1cc2c(ccc3nnc(C)n32)n1Cc1cccc(C(=O)NO)c1` [Example 31, 3-[(1,7-dimethyl-6H-pyrrolo[2,3-e][1,2,4]triazolo[4,3-a]pyridin-6-yl)methyl]-N-hydroxybenzamide trifluoroacetate salt] was tested. Which IC50 did it give?
**A.** 1000 to 10000 nM

**Q.** For `CNC(=O)c1cccc(Cn2c(C)cc3c2ccc2nnc(C)n23)c1` [Example 32, 3-[(1,7-dimethyl-6H-pyrrolo[2,3-e][1,2,4]triazolo[4,3-a]pyridin-6-yl)methyl]-N-methylbenzamide trifluoroacetate salt], which IC50 is on record?
**A.** ≤ 1000 nM

**Q.** With `CCNC(=O)c1cccc(Cn2c(C)cc3c2ccc2nnc(C)n23)c1` [Example 33, 3-[(1,7-dimethyl-6H-pyrrolo[2,3-e][1,2,4]triazolo[4,3-a]pyridin-6-yl)methyl]-N-ethylbenzamide trifluoroacetate salt] as the compound, how does the IC50 read?
**A.** ≤ 1000 nM

**Q.** How did the IC50 turn out when `COc1ccc(Cn2c(C)cc3c2ccc2nnc(C)n23)cc1` [Example 34, 6-(4-methoxybenzyl)-1,7-dimethyl-6H-pyrrolo[2,3-e][1,2,4]triazolo[4,3-a]pyridine] was run?
**A.** ≤ 1000 nM

**Q.** How did the IC50 turn out when `Cc1cc2c(ccc3nnc(C)n32)n1Cc1ccc(O)cc1` [Example 35, 4-[(1,7-dimethyl-6H-pyrrolo[2,3-e][1,2,4]triazolo[4,3-a]pyridin-6-yl)methyl]phenol] was run?
**A.** ≤ 1000 nM

**Q.** Which IC50 does the source give for `Cc1cc2c(ccc3nnc(C)n32)n1Cc1cccc(CNCCO)c1` [Example 36, 2-({3-[(1,7-dimethyl-6H-pyrrolo[2,3-e][1,2,4]triazolo[4,3-a]pyridin-6-yl)methyl]benzyl}amino)ethanol] here?
**A.** ≤ 1000 nM

**Q.** With `Cc1cc2c(ccc3nnc(C)n32)n1Cc1cccc(CN(C)CCO)c1` [Example 37, 2-[{3-[(1,7-dimethyl-6H-pyrrolo[2,3-e][1,2,4]triazolo[4,3-a]pyridin-6-yl)methyl]benzyl}(methyl)amino]ethanol] as the compound, how does the IC50 read?
**A.** ≤ 1000 nM

**Q.** Which IC50 does the source give for `Cc1cc2c(ccc3nnc(C)n32)n1Cc1cccc(CN2CCOCC2)c1` [Example 38, 1,7-dimethyl-6-[3-(morpholin-4-ylmethyl)benzyl]-6H-pyrrolo[2,3-e][1,2,4]triazolo[4,3-a]pyridine] here?
**A.** ≤ 1000 nM

**Q.** For `Cc1cc2c(ccc3nnc(C)n32)n1Cc1cccc(CN[C@H]2C[C@H](O)C2)c1` [Example 39, (1r,3r)-3-((3-((1,7-dimethyl-6H-pyrrolo[2,3-e][1,2,4]triazolo[4,3-a]pyridin-6-yl)methyl)benzyl)amino)cyclobutanol], which IC50 is on record?
**A.** ≤ 1000 nM

**Q.** For `Cc1cc2c(ccc3nnc(C)n32)n1Cc1cccc(CN(C)C)c1` [Example 40, 1-{3-[(1,7-dimethyl-6H-pyrrolo[2,3-e][1,2,4]triazolo[4,3-a]pyridin-6-yl)methyl]phenyl}-N,N-dimethylmethanamine], which IC50 is on record?
**A.** ≤ 1000 nM

**Q.** With `CNCc1cccc(Cn2c(C)cc3c2ccc2nnc(C)n23)c1` [Example 41, 1-{3-[(1,7-dimethyl-6H-pyrrolo[2,3-e][1,2,4]triazolo[4,3-a]pyridin-6-yl)methyl]phenyl}-N-methylmethanamine] as the compound, how does the IC50 read?
**A.** ≤ 1000 nM

**Q.** Which IC50 does the source give for `CCNCc1cccc(Cn2c(C)cc3c2ccc2nnc(C)n23)c1` [Example 42, N-{3-[(1,7-dimethyl-6H-pyrrolo[2,3-e][1,2,4]triazolo[4,3-a]pyridin-6-yl)methyl]benzyl}ethanamine] here?
**A.** ≤ 1000 nM

**Q.** Which IC50 does the source give for `CCNC(=O)Nc1cccc(Cn2c(C)cc3c2ccc2nnc(C)n23)c1` [Example 43, N-{3-[(1,7-dimethyl-6H-pyrrolo[2,3-e][1,2,4]triazolo[4,3-a]pyridin-6-yl)methyl]phenyl}-N′-ethylurea trifluoroacetate salt] here?
**A.** 1000 to 10000 nM

**Q.** How did the IC50 turn out when `Cc1cc2c(ccc3nnc(C)n32)n1Cc1cccc(NC(N)=O)c1` [Example 44, N-{3-[(1,7-dimethyl-6H-pyrrolo[2,3-e][1,2,4]triazolo[4,3-a]pyridin-6-yl)methyl]phenyl}urea] was run?
**A.** 1000 to 10000 nM

**Q.** With `Cc1cc2c(ccc3nnc(C)n32)n1Cc1cccc(CN2CCCC2)c1` [Example 45, 1,7-dimethyl-6-[3-(pyrrolidin-1-ylmethyl)benzyl]-6H-pyrrolo[2,3-e][1,2,4]triazolo[4,3-a]pyridine] as the compound, how does the IC50 read?
**A.** ≤ 1000 nM

**Q.** `Cc1cc2c(ccc3nnc(C)n32)n1Cc1cccc(CN2CCCCC2)c1` [Example 46, 1,7-dimethyl-6-[3-(piperidin-1-ylmethyl)benzyl]-6H-pyrrolo[2,3-e][1,2,4]triazolo[4,3-a]pyridine] was tested. Which IC50 did it give?
**A.** ≤ 1000 nM

**Q.** How did the IC50 turn out when `Cc1cc2c(ccc3nnc(C)n32)n1Cc1cccc(CN2CCN(C)CC2)c1` [Example 47, 1,7-dimethyl-6-{3-[(4-methylpiperazin-1-yl)methyl]benzyl}-6H-pyrrolo[2,3-e][1,2,4]triazolo[4,3-a]pyridine] was run?
**A.** 1000 to 10000 nM

**Q.** How did the IC50 turn out when `Cc1cc2c(ccc3nnc(C)n32)n1Cc1cccc(CN2CCNCC2)c1` [Example 48, 1,7-dimethyl-6-[3-(piperazin-1-ylmethyl)benzyl]-6H-pyrrolo[2,3-e][1,2,4]triazolo[4,3-a]pyridine] was run?
**A.** 1000 to 10000 nM

**Q.** `Cc1cc2c(ccc3nnc(C)n32)n1Cc1ccc(CO)cc1` [Example 49, {4-[(1,7-dimethyl-6H-pyrrolo[2,3-e][1,2,4]triazolo[4,3-a]pyridin-6-yl)methyl]phenyl}methanol] was tested. Which IC50 did it give?
**A.** ≤ 1000 nM

**Q.** `Cc1cc2c(ccc3nnc(C)n32)n1Cc1ccc(CN2CCC2)cc1` [Example 50, 6-[4-(azetidin-1-ylmethyl)benzyl]-1,7-dimethyl-6H-pyrrolo[2,3-e][1,2,4]triazolo[4,3-a]pyridine] was tested. Which IC50 did it give?
**A.** 1000 to 10000 nM

**Q.** For `Cc1cc2c(ccc3nnc(C)n32)n1Cc1ccc(CN2CC(O)C2)cc1` [Example 52, 1-{4-[(1,7-dimethyl-6H-pyrrolo[2,3-e][1,2,4]triazolo[4,3-a]pyridin-6-yl)methyl]benzyl}azetidin-3-ol], which IC50 is on record?
**A.** 1000 to 10000 nM

**Q.** For `Cc1cc2c(ccc3nnc(C)n32)n1Cc1ccc(CN(C)C)cc1` [Example 53, 1-{4-[(1,7-dimethyl-6H-pyrrolo[2,3-e][1,2,4]triazolo[4,3-a]pyridin-6-yl)methyl]phenyl}-N,N-dimethylmethanamine], which IC50 is on record?
**A.** 1000 to 10000 nM

**Q.** `COC1CN(Cc2cccc(Cn3c(C)cc4c3ccc3nnc(C)n34)c2)C1` [Example 54, 6-{3-[(3-methoxyazetidin-1-yl)methyl]benzyl}-1,7-dimethyl-6H-pyrrolo[2,3-e][1,2,4]triazolo[4,3-a]pyridine] was tested. Which IC50 did it give?
**A.** ≤ 1000 nM

**Q.** For `Cc1nc2c(ccc3nnc(C)n32)n1Cc1ccccc1` [Example 55, 3-benzyl-2,8-dimethyl-3H-imidazo[4,5-e][1,2,4]triazolo[4,3-a]pyridine], which IC50 is on record?
**A.** ≤ 1000 nM

**Q.** With `Cc1nnc2ccc3c(cc(CO)n3Cc3ccccc3)n12` [Example 56, (6-benzyl-1-methyl-6H-pyrrolo[2,3-e][1,2,4]triazolo[4,3-a]pyridin-7-yl)methanol] as the compound, how does the IC50 read?
**A.** 1000 to 10000 nM

**Q.** Which IC50 does the source give for `Cc1nnc2ccc3c(cc(Cn4ccnc4)n3Cc3ccccc3)n12` [Example 57, 6-benzyl-7-(1H-imidazol-1-ylmethyl)-1-methyl-6H-pyrrolo[2,3-e][1,2,4]triazolo[4,3-a]pyridine] here?
**A.** 1000 to 10000 nM

**Q.** Which IC50 does the source give for `Cc1nnc2ccc3c(cc(C(N)=O)n3Cc3ccccc3)n12` [Example 58, 6-benzyl-1-methyl-6H-pyrrolo[2,3-e][1,2,4]triazolo[4,3-a]pyridine-7-carboxamide] here?
**A.** ≤ 1000 nM

**Q.** How did the IC50 turn out when `CCNC(=O)c1cc2c(ccc3nnc(C)n32)n1Cc1ccccc1` [Example 59, 6-benzyl-N-ethyl-1-methyl-6H-pyrrolo[2,3-e][1,2,4]triazolo[4,3-a]pyridine-7-carboxamide] was run?
**A.** ≤ 1000 nM

**Q.** Which IC50 does the source give for `Cc1nnc2ccc3c(cc(C(=O)N4CC(C#N)C4)n3Cc3ccccc3)n12` [Example 60, 1-[(6-benzyl-1-methyl-6H-pyrrolo[2,3-e][1,2,4]triazolo[4,3-a]pyridin-7-yl)carbonyl]azetidine-3-carbonitrile] here?
**A.** ≤ 1000 nM

**Q.** For `Cc1nnc2ccc3c(cc(CCO)n3Cc3ccccc3)n12` [Example 61, 2-(6-benzyl-1-methyl-6H-pyrrolo[2,3-e][1,2,4]triazolo[4,3-a]pyridin-7-yl)ethanol], which IC50 is on record?
**A.** 1000 to 10000 nM

**Q.** With `Cc1nnc2ccc3c(cc(-c4ccn[nH]4)n3Cc3ccccc3)n12` [Example 62, 6-benzyl-1-methyl-7-(1H-pyrazol-5-yl)-6H-pyrrolo[2,3-e][1,2,4]triazolo[4,3-a]pyridine] as the compound, how does the IC50 read?
**A.** ≤ 1000 nM

**Q.** `Cc1nnc2ccc3c(cc(-c4cn[nH]c4)n3Cc3ccccc3)n12` [Example 63, 6-benzyl-1-methyl-7-(1H-pyrazol-4-yl)-6H-pyrrolo[2,3-e][1,2,4]triazolo[4,3-a]pyridine] was tested. Which IC50 did it give?
**A.** ≤ 1000 nM

**Q.** With `Cc1nnc2ccc3c(cc(-c4cnn(CC#N)c4)n3Cc3ccccc3)n12` [Example 64, [4-(6-benzyl-1-methyl-6H-pyrrolo[2,3-e][1,2,4]triazolo[4,3-a]pyridin-7-yl)-1H-pyrazol-1-yl]acetonitrile] as the compound, how does the IC50 read?
**A.** ≤ 1000 nM
